Reference: publication PMC8102066 (eLife, 2021)
Values joined by “and” are separate entries in the source; they are usually repeats but may differ in a detail not shown here. Equal values may be shown once.

Columns and labels:
[1] = molecular target: T1, mGluR2-I779A (Rattus norvegicus, UniProt P31421, I779A); assay: Calcium imaging in HEK 293 T cells; assay type: cell-based; conditions: for Calcium response amplitude: mGluR2-I779A
T1 construct: we performed calcium imaging experiments with mutations in the full-length mGluR2 background; expressed in transfected cells; host or cells: HEK 293 T
T1 sequence (P31421 19-872 I779A): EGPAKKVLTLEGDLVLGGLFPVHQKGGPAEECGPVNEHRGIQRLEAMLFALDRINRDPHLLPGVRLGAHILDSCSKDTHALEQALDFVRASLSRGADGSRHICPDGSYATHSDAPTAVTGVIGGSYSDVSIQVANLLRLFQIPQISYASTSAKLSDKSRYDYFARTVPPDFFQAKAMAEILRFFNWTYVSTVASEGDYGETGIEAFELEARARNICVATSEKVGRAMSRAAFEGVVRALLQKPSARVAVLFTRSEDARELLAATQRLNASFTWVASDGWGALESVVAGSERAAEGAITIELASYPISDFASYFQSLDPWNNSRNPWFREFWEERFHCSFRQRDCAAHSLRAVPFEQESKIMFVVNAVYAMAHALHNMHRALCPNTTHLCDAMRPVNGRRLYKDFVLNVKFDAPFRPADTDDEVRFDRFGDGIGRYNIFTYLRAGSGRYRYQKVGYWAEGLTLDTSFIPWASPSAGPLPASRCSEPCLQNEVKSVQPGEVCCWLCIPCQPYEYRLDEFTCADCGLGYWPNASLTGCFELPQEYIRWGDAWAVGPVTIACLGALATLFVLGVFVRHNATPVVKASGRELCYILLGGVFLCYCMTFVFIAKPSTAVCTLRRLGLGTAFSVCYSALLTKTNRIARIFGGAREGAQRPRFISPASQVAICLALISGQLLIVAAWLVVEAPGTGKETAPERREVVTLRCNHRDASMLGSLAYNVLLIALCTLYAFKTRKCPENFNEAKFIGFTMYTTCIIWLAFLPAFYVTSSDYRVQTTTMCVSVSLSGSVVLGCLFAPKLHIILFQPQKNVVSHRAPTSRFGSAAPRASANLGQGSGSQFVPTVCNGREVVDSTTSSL
Experimental: Approximately 30 ROIs were analyzed per movie.

[2] = molecular target: mGluR2-3xTM4 (Rattus norvegicus, UniProt P31421, A677S/A681F/A685G); assay: Calcium imaging (G protein chimera, GCaMP6f) in HEK 293 T cells; conditions: for Calcium response amplitude: normalized to 1 mM glutamate, replicates
mGluR2-3xTM4, sequence (P31421 19-872 A677S/A681F/A685G): as the sequence (P31421 19-872 I779A) above, with A659S, A663F, A667G, A761I counted along it

[3] = molecular target: mGluR2 (Rattus norvegicus, UniProt P31421); assay: as above
mGluR2 (Rattus norvegicus, UniProt P31421), sequence (P31421 19-872): as the sequence (P31421 19-872 I779A) above, with A761I counted along it

[4] = molecular target: T2, mGluR2-C121A-I779A (Rattus norvegicus, UniProt P31421, C121A/I779A); assay: SiMPull subunit counting in the presence of ligands; conditions: for % Dimerization: SNAP-mGluR2-C121A-I779A in presence of the ligand, single replicates per experiment day
T2 construct: expressed in transfected cells; host or cells: HEK 293 T (detergent lysate, pulled down by anti-HA antibody)
T2 sequence (P31421 19-872 C121A/I779A): as the sequence (P31421 19-872 I779A) above, with C103A counted along it

[5] = tested on: mGluR2-TMD-3xTM4-I779A; assay: as above; set-up: species or system rat; conditions: for % Dimerization: SNAP-mGluR2-TMD-3xTM4-I779A in presence of the ligand, single replicates per experiment day; for effect of ligand on dimerization (SiMPull): saturating concentration
[6] = molecular target: mGluR2-TMD (Rattus norvegicus, UniProt P31421); assay: as above; conditions: for % Dimerization: SNAP-mGluR2-TMD in presence of the ligand, single replicates per experiment day; for effect of ligand on dimerization (SiMPull): saturating concentration
mGluR2-TMD, sequence (P31421 558-821 limits assumed): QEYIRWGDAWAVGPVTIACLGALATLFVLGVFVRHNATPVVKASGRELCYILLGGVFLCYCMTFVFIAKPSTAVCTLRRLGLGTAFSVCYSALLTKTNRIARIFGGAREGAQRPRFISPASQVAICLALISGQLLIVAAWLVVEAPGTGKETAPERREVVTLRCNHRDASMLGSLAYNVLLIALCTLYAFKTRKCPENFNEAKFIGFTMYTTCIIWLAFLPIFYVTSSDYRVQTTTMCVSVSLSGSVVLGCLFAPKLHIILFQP

[7] = molecular target: T3, mGluR2-C121A-3xTM4-I779A (Rattus norvegicus, UniProt P31421, A677S/A681F/A685G/C121A/I779A); assay: as above; conditions: SNAP-mGluR2-C121A-3xTM4-I779A in presence of the ligand; single replicates per experiment day
T3 construct: expressed in transfected cells; host or cells: HEK 293 T (detergent lysate, pulled down by anti-HA antibody)
T3 sequence (P31421 19-872 C121A/A677S/A681F/A685G/I779A): as the sequence (P31421 19-872 I779A) above, with C103A, A659S, A663F, A667G counted along it

[8] = tested on: mGluR2-TMD-I779A; assay: as above; set-up: species or system rat; conditions: for % Dimerization: SNAP-mGluR2-TMD-I779A in presence of the ligand, single replicates per experiment day
[9] = molecular target: T4, mGluR2-C121A (Rattus norvegicus, UniProt P31421, C121A); assay: as above; conditions: SNAP-mGluR2-C121A in presence of the ligand; single replicates per experiment day
T4 construct: expressed in transfected cells; host or cells: HEK 293 T (detergent lysate, pulled down by anti-HA antibody)
T4 sequence (P31421 19-872 C121A): as the sequence (P31421 19-872 I779A) above, with C103A, A761I counted along it

[10] = molecular target: T5, mGluR2-C121A-3xTM4 (Rattus norvegicus, UniProt P31421, A677S/A681F/A685G/C121A); assay: as above; conditions: for % Dimerization: SNAP-mGluR2-C121A-3xTM4 in presence of the ligand, single replicates per experiment day
T5 construct: expressed in transfected cells; host or cells: HEK 293 T (detergent lysate, pulled down by anti-HA antibody)
T5 sequence (P31421 19-872 C121A/A677S/A681F/A685G): as the sequence (P31421 19-872 I779A) above, with C103A, A659S, A663F, A667G, A761I counted along it

[11] = tested on: mGluR2-TMD-3xTM4; assay: as above; set-up: species or system rat; conditions: for % Dimerization: SNAP-mGluR2-TMD-3xTM4 in presence of the ligand, single replicates per experiment day
[12] = molecular target: mGluR2 (Rattus norvegicus, UniProt P31421, INS660ASEIGTGFPFDPHYVEVLGERMHYVDVGPRDGTPVLFLHGNPTSSYVWRNIIPHVAPTHRCIAPDLIGMGKSDKPDLGYFFDDHVRFMDAFIEALGLEEVVLVIHDWGSALGFHWAKRNPERVKGIAFMEFIRPIPTWDEWPEFARETFQAFRTTDVGRKLIIDQNVFIEGTLPMGVVRPLTEVEMDHYREPFLNPVDREPLWRFPNELPIAGEPANIVALVEEYMDWLHQSPVPKLLFWGTPGVLIPPAEAARLAKSLPNCKAVDIGPGLNLLQEDNPDLIGSEIARWLSTLEISGLE); assay: Inter-TMD FRET sensor (HaloTag in ICL2), live cells
UniProt P31421, sequence (P31421 with tags, fused parts or gaps with the stated changes): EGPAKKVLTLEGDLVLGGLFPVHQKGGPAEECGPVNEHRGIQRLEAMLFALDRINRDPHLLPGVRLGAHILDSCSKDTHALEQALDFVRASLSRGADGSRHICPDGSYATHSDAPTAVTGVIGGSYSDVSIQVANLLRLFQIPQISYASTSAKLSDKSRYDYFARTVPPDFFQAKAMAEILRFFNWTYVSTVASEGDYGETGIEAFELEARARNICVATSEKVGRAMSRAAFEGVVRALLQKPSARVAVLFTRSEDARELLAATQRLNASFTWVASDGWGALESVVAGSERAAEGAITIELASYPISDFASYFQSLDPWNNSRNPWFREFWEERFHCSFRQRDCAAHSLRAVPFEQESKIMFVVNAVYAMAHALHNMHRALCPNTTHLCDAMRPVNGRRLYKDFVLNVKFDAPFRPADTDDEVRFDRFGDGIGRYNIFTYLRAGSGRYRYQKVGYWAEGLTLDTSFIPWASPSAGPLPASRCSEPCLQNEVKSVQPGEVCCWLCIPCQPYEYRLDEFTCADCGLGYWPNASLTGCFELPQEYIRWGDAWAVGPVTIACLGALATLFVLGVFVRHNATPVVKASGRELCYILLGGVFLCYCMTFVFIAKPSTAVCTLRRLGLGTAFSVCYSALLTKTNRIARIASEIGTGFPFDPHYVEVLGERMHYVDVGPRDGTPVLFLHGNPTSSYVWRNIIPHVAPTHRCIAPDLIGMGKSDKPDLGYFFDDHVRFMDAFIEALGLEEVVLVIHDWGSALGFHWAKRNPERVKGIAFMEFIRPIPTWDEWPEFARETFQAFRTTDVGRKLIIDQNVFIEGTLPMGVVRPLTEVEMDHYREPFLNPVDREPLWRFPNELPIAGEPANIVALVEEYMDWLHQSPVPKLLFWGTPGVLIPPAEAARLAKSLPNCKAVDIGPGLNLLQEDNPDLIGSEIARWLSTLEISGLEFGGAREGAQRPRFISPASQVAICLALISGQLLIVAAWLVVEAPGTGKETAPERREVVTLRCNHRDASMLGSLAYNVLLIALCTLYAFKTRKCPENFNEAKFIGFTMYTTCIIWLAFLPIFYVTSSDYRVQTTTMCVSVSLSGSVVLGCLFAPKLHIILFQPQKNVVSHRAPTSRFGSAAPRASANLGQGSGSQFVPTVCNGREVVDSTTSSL

[13] = molecular target: mGluR3 (Rattus norvegicus, UniProt P31422, INS669ASEIGTGFPFDPHYVEVLGERMHYVDVGPRDGTPVLFLHGNPTSSYVWRNIIPHVAPTHRCIAPDLIGMGKSDKPDLGYFFDDHVRFMDAFIEALGLEEVVLVIHDWGSALGFHWAKRNPERVKGIAFMEFIRPIPTWDEWPEFARETFQAFRTTDVGRKLIIDQNVFIEGTLPMGVVRPLTEVEMDHYREPFLNPVDREPLWRFPNELPIAGEPANIVALVEEYMDWLHQSPVPKLLFWGTPGVLIPPAEAARLAKSLPNCKAVDIGPGLNLLQEDNPDLIGSEIARWLSTLEISGLE); assay: as above
UniProt P31422, sequence (P31422 with tags, fused parts or gaps with the stated changes): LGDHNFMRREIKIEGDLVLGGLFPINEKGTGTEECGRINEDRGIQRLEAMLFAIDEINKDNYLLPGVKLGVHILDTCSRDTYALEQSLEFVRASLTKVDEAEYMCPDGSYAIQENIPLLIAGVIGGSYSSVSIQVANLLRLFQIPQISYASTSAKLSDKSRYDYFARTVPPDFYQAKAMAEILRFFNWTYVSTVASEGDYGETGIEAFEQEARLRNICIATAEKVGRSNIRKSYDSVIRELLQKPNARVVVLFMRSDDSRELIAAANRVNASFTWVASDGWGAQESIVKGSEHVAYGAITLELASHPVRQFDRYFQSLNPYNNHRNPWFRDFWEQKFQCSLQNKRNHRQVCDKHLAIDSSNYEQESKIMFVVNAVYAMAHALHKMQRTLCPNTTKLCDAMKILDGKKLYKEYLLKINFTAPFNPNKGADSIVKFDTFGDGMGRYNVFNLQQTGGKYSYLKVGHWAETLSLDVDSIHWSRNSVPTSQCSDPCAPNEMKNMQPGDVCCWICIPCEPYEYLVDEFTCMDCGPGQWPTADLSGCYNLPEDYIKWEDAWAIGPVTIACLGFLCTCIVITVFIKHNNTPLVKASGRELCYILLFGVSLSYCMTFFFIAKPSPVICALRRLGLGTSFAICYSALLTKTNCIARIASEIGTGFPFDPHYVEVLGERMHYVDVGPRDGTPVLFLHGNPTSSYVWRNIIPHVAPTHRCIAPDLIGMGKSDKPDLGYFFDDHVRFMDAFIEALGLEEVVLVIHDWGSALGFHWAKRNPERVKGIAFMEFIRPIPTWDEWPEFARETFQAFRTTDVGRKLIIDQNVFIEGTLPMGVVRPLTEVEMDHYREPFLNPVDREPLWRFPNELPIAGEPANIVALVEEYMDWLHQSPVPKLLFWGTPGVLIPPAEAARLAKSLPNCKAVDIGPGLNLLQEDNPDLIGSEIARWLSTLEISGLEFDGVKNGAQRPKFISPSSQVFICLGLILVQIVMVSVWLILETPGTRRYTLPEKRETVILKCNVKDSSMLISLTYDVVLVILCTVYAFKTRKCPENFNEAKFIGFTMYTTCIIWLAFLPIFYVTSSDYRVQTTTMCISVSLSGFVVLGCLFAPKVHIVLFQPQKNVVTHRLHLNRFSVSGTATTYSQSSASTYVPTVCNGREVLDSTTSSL

[14] = molecular target: mGluR3 (Rattus norvegicus, UniProt P31422); assay: Calcium imaging (G protein chimera, GCaMP6f) in HEK 293 T cells
mGluR3 (Rattus norvegicus, UniProt P31422), sequence (P31422 23-879): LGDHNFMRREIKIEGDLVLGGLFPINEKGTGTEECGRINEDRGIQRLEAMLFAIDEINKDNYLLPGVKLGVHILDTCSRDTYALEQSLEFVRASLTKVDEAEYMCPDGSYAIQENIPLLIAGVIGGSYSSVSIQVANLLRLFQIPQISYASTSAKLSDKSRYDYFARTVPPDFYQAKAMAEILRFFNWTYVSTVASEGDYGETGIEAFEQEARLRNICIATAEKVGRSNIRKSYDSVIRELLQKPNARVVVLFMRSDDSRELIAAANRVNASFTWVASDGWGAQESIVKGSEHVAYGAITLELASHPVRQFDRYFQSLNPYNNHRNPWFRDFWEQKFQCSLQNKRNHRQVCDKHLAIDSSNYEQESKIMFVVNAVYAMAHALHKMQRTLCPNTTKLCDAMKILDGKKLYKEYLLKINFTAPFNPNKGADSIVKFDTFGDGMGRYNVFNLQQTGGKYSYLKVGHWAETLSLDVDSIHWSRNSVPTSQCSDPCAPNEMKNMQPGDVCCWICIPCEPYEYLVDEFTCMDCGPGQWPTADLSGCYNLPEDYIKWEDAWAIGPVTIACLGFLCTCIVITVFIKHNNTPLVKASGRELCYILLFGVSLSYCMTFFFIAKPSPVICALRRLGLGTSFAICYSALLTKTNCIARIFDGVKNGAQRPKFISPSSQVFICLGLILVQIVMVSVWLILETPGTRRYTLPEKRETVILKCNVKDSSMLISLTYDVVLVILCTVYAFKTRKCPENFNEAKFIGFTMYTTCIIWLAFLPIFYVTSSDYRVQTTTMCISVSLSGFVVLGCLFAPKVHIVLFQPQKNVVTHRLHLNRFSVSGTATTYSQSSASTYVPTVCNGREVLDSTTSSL

[15] = tested on: group II mGluR; set-up: method as in Hemstapat et al., 2007; conditions: ref Hemstapat et al., 2007; cited from earlier work
[16] = tested on: SNAP-tagged mGluR2 and mGluR3 constructs; assay: Surface expression measurements; assay type: cell-based, rat; conditions: construct; single measurements
Text: ImageJ was used to analyze fluorescence intensity of cell clusters. […] Fluorescence intensity values for each construct were normalized to wild-type values for comparison.
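Throughout, for Basal FRET Response (%): receptor HaloTag labeled with JF549 donor and JF646 acceptor (1:3), FRET taken as acceptor over summed donor plus acceptor fluorescence intensity, imaged at room temperature.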

In the case of `COc1ccccc1Oc1ccc(N(Cc2cccnc2)S(=O)(=O)CC(F)(F)F)cc1` [LY487379, N-(4-(2-methoxyphenoxy)phenyl)-N-(2,2,2-trifluoroethylsulfonyl)pyrid-3-ylmethylamine], the Calcium response amplitude ([1]; LY487379 100 nM) is reported as 0.00, the Calcium response amplitude ([1]; LY487379 3 uM) is reported as 0.21 and 0.14 and the Calcium response amplitude ([1]; LY487379 10 uM) is reported as 0.34 and 0.27. The Calcium response amplitude ([1]; LY487379 100 uM) was 0.49 and 0.44, the “shift of LY48 EC50 compared to mGluR2” value ([1]; calcium imaging, rightward) was 12 fold and the EC50 ([1]; read-out: LY48 EC50, calcium imaging) was 5460 ± 10 nM. The EC50 [2] was 270 ± 60 nM, the Calcium response amplitude ([2]; LY487379 1 nM) was 0.00 and the Calcium response amplitude ([2]; LY487379 10 nM) was 0.14 and 0.16 and 0.09 and 0.00. The Calcium response amplitude ([2]; LY487379 100 nM) was 0.27 and 0.19 and 0.25, the Calcium response amplitude ([2]; LY487379 1 uM) was 0.80 and 0.82 (2×) and 0.66 and the Calcium response amplitude ([2]; LY487379 3 uM) was 0.86 and 0.89. For the same molecule, the Calcium response amplitude ([2]; LY487379 10 uM) was 0.94 and 0.93 and 0.86, the Calcium response amplitude ([2]; LY487379 100 uM) was 0.97 and 0.91 and 0.99 and the EC50 [3] was 450 ± 100 nM. It also gave a Calcium response amplitude ([3]; LY487379 1 nM, mGluR2) of 0.00, a Calcium response amplitude ([3]; LY487379 1 nM, normalized to 1 mM glutamate, replicates) of 0.00 and a Calcium response amplitude ([3]; LY487379 10 nM, mGluR2) of 0.00. The Calcium response amplitude ([3]; LY487379 10 nM, normalized to 1 mM glutamate, replicates) was 0.00, the Calcium response amplitude ([3]; LY487379 100 nM, normalized to 1 mM glutamate, replicates) was 0.09 and 0.00 and 0.07 and 0.33 and the Calcium response amplitude ([3]; LY487379 1 uM, mGluR2) was 0.53 and 0.49 and 0.68 and 0.50 and 0.51 and 0.46. The Calcium response amplitude ([3]; LY487379 1 uM, normalized to 1 mM glutamate, replicates) was 0.53 and 0.49 and 0.68 and 0.50 and 0.51 and 0.46, the Calcium response amplitude ([3]; LY487379 3 uM, mGluR2) was 0.70 and 0.58 and 0.72 and the Calcium response amplitude ([3]; LY487379 3 uM, normalized to 1 mM glutamate, replicates) was 0.70 and 0.58 and 0.72. The Calcium response amplitude ([3]; LY487379 10 uM, mGluR2) was 0.61 and 0.56 and 0.77 and 0.92 and 0.74 and 0.69, the Calcium response amplitude ([3]; LY487379 10 uM, normalized to 1 mM glutamate, replicates) was 0.61 and 0.56 and 0.77 and 0.92 and 0.74 and 0.69 and the Calcium response amplitude ([3]; LY487379 100 uM, mGluR2) was 0.76 and 0.82 and 0.73 and 0.74. The Calcium response amplitude ([3]; LY487379 100 uM, normalized to 1 mM glutamate, replicates) was 0.76 and 0.82 and 0.73 and 0.74.

In the case of `Cc1c(C(N)=O)nc2n1C[C@@H](COc1ccc(C(C)(C)C)cc1)O2` [TASP], the “% Dimerization” value [4] is reported as 59.23% and 63.47% and 55.82% and 58.53% and 66.92% and 63.85%, the “% Dimerization” value [5] is reported as 47.45% and 39.66% and 50.29% and 36.75% and 47.53% and 38.72% and the “effect of ligand on dimerization (SiMPull)” value (shortened to “effect of ligand”) [5] is reported as “prevented any PAM- or NAM-induced dimerization shifts”. The “% Dimerization” value [6] was 70.24% and 67.71% and 72.49% and 72.50% and 70.98% and 74.03%, the “effect of ligand” value [6] was “no sensitivity” and the “% Dimerization” value [7] was 50.00% and 40.35% and 44.84% and 41.46% and 44.90% and 44.88%. The “% Dimerization” value [8] was 52.39% and 61.74% and 61.54% and 62.46% and 33.04% and 41.52%, the “% Dimerization” value [9] was 76.12% and 87.00% and 99.52% and 87.93% and 80.12% and 79.00% and the “% Dimerization” value [10] was 78.37% and 85.60% and 87.01% and 85.50% and 86.03% and 88.59%. The “effect of ligand” value ([10]; saturating concentration) was “significantly increases dimerization”, the “% Dimerization” value [11] was 69.61% and 70.23% and 79.80% and 76.57% and 71.76% and 76.09% and the “effect of ligand” value ([11]; saturating concentration) was “clear increase in dimerization”.

With MNI 137 the “block of functional (calcium) glutamate response” value ([3]; MNI 137 10 μM) was “full block of functional responses”, the “Maximum % Inhibition” value ([3]; mGluR2, Experiment: Function) was 100% and the “block of glutamate-induced FRET responses” value ([12]; MNI 137 10 μM) was 32.0 ± 4.5%. For the same molecule, the “Maximum % Inhibition” value ([12]; mGluR2, Experiment: FRET) was 29.8% and 42.4% and 23.8%, the “% Dimerization” value [4] was 83.51% and 83.55% and 76.24% and 73.81% and 83.57% and 74.66% and the “effect of ligand” value ([4]; saturating concentration) was “significantly increases dimerization”. The “% Dimerization” value [5] was 46.88% and 52.99% and 50.80% and 55.60% and 41.02% and 44.69%, the “effect of ligand” value [5] was “prevented any PAM- or NAM-induced dimerization shifts” and the “% Dimerization” value [6] was 80.57% and 69.39% and 68.4% and 70.29% and 73.87% and 66.8% and 70.292% and 73.871% and 80.566% and 69.3893%. For the same molecule, the “effect of ligand” value [6] was “no sensitivity”, the “block of glutamate-induced FRET responses” value ([13]; MNI 137 10 μM) was 42.9 ± 7.4% and the “block of glutamate-induced FRET responses” value ([13]; MNI 137 50 μM, n = 3) was 44.9 ± 8.3%. For the same molecule, the “Basal FRET Response (%)” value ([13]; mGluR3-Halo-ICL2, absence of glutamate, individual measurements) was 13.3% and 15.2% and 5% and 5.6% and 0% and 19.5% and 7.8% and 52%, the “% Dimerization” value [7] was 49.83% and 50.71% and 40.36% and 45.67% and 37.52% and 54.71% and the “% Dimerization” value [8] was 60.52% and 74.21% and 73.33% and 77.72% and 88.90% and 81.43%. For the same molecule, the “effect of ligand” value ([8]; saturating concentration) was “clear increase”, the “block of functional (calcium) glutamate response” value ([14]; MNI 137 10 μM) was “full block of functional responses” and the “Maximum % Inhibition” value ([14]; mGluR3, Experiment: Function) was 100%. For the same molecule, the “% Dimerization” value [9] was 71.52% and 91.33% and 86.77% and 100.30% and 93.63% and 83.88%, the IC50 [15] was ~10 nM and the “% Dimerization” value [10] was 70.00% and 81.03% and 62.91% and 67.92% and 62.85% and 68.46%. The “% Dimerization” value [11] was 39.03% and 46.76% and 55.63% and 64.38% and 47.94% and 59.01%.

For SNAP-mGluR2-P778A, the “Surface Expression” value [16] was 0.58 and 0.76 and 0.68 and 0.87 and 0.59 and 1.10 and 0.91.
